From patent US8680081B2, “Prophylactic treatment of migraine” (priority 2000, dated 2014) come the findings set out here.

Assay [1] can be described thus: Targeted prophylactic treatment of migraine before a time window, trigger or attack, patient case reports. Format: in vivo, human.
Description: In another embodiment, the invention provides a method for targeted prophylactic treatment of a migraine condition. The method includes determining a time window or selected time period in which a patient desires to be free from migraine; and administering to the patient, at a time prior to the determined time window, a therapeutically effective amount of a cyclooxygenase-2 inhibitor, either alone or in combination with acetylsalicylic acid or active derivative, to prevent or reduce migraine symptoms during the time window.
Prior to the determined time window, a therapeutically effective amount of a cyclooxygenase-2 inhibitor is administered to the patient. By “prior,” it is meant that the administration is temporally before the determined time window, but sufficiently close in time so that the prophylactic effect of the cyclooxygenase-2 inhibitor is experienced throughout most or all of the determined time window.
A patient with an established history of migraine brought on by glare associated with an ophthalmic operating room microscope was treated with 6 milligrams of IMITREX by injection (Glaxo Wellcome Inc.), and an oral dose of 12.5 to 25 milligrams of VIOXX (Merck & Co, Inc.) the night before a scheduled ophthalmic operation.
A patient with an established history of migraine brought on by glare associated with repeated use of a slit lamp biomicroscope was treated with an oral dose of 12.5 to 25 milligrams of VIOXX (Merck & Co, Inc.) the night before a scheduled clinic.
A patient with an established history of migraine brought on by glare associated with repeated use of a slit lamp biomicroscope was treated with an oral dose of 12.5 to 25 milligrams of VIOXX (Merck & Co, Inc.) and 325 milligrams aspirin (over-the-counter aspirin tablets) the night before a scheduled clinic.
A patient with an established history of migraine brought on by occasional consumption of red wine (as a beverage or in a sauce or dressing) was treated with an oral dose of 12.5 to 25 milligrams of VIOXX (Merck & Co, Inc.) on the same day as such consumption before migraine attack symptoms are evident.
A patient with an established history of migraine brought on by occasional consumption of red wine (as a beverage or in a sauce or dressing) was treated with an oral dose of 12.5 to 25 milligrams of VIOXX (Merck & Co, Inc.) and 162.5 milligrams aspirin (over-the-counter aspirin tablets) on the same day as such consumption before migraine attack symptoms are evident.
(§1) A patient with a well-established history of recurrent migraine attacks learns to recognize their prodromal symptoms of altered mood, irritability, fatigue, and craving for sweets which typically occur 3 to 24 hours prior to the fully developed phase of their migraine. They learn over time that these prodromal symptoms eventually lead to a migraine attack in most cases. Their migraine attacks typically include unusual sensitivity to light and sound, difficulty concentrating, headache, and less commonly, nausea. As soon as they recognize the prodromal symptoms, they take a one-time dose of 25-50 milligrams of rofecoxib, followed by 12.5-25 milligrams of rofecoxib daily.
as §1, with “rofecoxib and 162.5-325 milligrams aspirin,” for “rofecoxib,”, “rofecoxib and 162.5-325 milligrams aspirin” for “rofecoxib”, “daily. […]” for “daily.”

Assay [2] is described as follows: Prophylactic treatment of migraine by regular administration, patient case reports. Format: in vivo, human. On the procedure:
The method for prophylactic treatment includes regular administration of a therapeutically effective amount of a combination comprising a cyclooxygenase-2 inhibitor and acetylsalicylic acid or active derivative. Administration of the combination including a cyclooxygenase-2 inhibitor may include administration of one or more cyclooxygenase-2 inhibitors.
The combination is administered regularly, meaning that the combination is administered periodically or aperiodically over a period of several days or weeks, in an effort to prevent migraine attacks, and is not merely administered in response or reaction to migraine symptoms. Regular administration may include once-daily administration of each agent, administration on alternate days, or any other periodic or aperiodic schedule that is determined to be effective as a planned course of treatment for preventing migraine.
A patient with an established history of recurrent migraine was treated with a daily oral dose of 25 milligrams of VIOXX (rofecoxib tablets, Merck & Co, Inc., Whitehouse Station, N.J.). […]
A patient with an established history of recurrent migraine was treated with a daily oral dose of 200 milligrams of CELEBREX (celecoxib capsules, G.D. Searle & Co., Chicago, Ill.).
A patient with a well-established history of recurrent migraine attacks heralded by an aura of dysphasia (i.e., difficulty in finding words) begins taking 25-50 milligrams of rofecoxib at the onset of the dysphasic symptoms. […] Because they have lately suffered more than four migraine attacks per month, on the advice of their physician they continue daily dosing of 12.5-25 milligrams of rofecoxib over time. […]

Where [3] appears, read: Example 1, daily oral 25 milligrams VIOXX, treatment period three to four weeks.

As for `CS(=O)(=O)c1ccc(C2=C(c3ccccc3)C(=O)OC2)cc1` [VIOXX, 4-[4-(methylsulfonyl)phenyl]-3-phenyl-2(5H)-furanone], in assay [1] (Example 6, glare-induced migraine, oral 12.5 to 25 milligrams VIOXX the night before), the “migraine symptoms before, during and after the scheduled clinic” value is “free of migraine symptoms”. Besides, the “duration of therapeutic benefit” value in assay [1] (Example 8, further daily oral 12.5 to 25 milligrams VIOXX after red wine) is reported as “extended for several days”. For the same compound, the “migraine symptoms in the period when symptoms would normally be expected” value in assay [1] (Example 8, red wine-induced migraine, oral 12.5 to 25 milligrams VIOXX same day as consumption) is listed as “either free of, or experienced substantially reduced, migraine symptoms”. For the same compound, the migraine attack symptoms entry in assay [1] (Example 10, at prodromal symptoms one-time 25-50 milligrams rofecoxib, then 12.5-25 milligrams daily) is listed as “either free of, or has greatly reduced, migraine attack symptoms”. In addition, the “period of benefit with continued daily dosing” value in assay [1] (Example 10, continued daily 12.5-25 milligrams rofecoxib) is recorded as “several days (or longer)”. Moreover, the “intensity and length of the migraine attack symptoms” value in assay [1] (Example 12, 25-50 milligrams rofecoxib at onset of dysphasic aura) is “reduction in the intensity and length”. The migraine symptoms entry in assay [2] (Example 1, daily oral 25 milligrams VIOXX, first week of use) is given as “free of migraine symptoms”. In assay [2] (setting [3]), the “frequency of migraine attacks” value is “reduced frequency” and the “intensity of the symptoms of subsequent migraine attacks” value was “reduced intensity”. Also, the “frequency and intensity of the migraine attacks” value in assay [2] (Example 12, continued daily 12.5-25 milligrams rofecoxib) was “substantial decrease in the frequency and intensity”.
`Cc1ccc(-c2cc(C(F)(F)F)nn2-c2ccc(S(N)(=O)=O)cc2)cc1` [CELEBREX, 4-[5-(4-methylphenyl)-3-(trifluoromethyl)-1H-pyrazol-1-yl]]: the “intensity of the symptoms of a subsequent migraine” value in assay [2] (Example 4, daily oral 200 milligrams CELEBREX) is reported as “reduced intensity”. Further, the migraine symptoms result in assay [2] (Example 4, daily oral 200 milligrams CELEBREX, treatment period ten to fourteen days) is recorded as “free of migraine symptoms”.
